# Results taken from US8629273B2, “Diazinylpyrazolyl compounds” (Bayer Intellectual Property GmbH, priority 2009, dated 2014).
# System: Ctenocephalides felis
# Experiment: Ctenocephalides felis oral (CTECFE)
# Assay type: in vivo
# Settings: 100 ppm in citrated cattle blood, after 2 days
# Outline: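 Twenty unfed adult fleas fed through parafilm on citrated cattle blood containing compound, diluted from a DMSO concentrate (10 mg per 0.5 ml). Kill % scored after 2 days (100% = all dead, 0% = none).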
row,SMILES,kill [%]
1,COc1nccnc1-n1nc(C(F)(F)F)c(-c2cc(Cl)c3c(c2)OCO3)c1N=COC(C)C [Example 2-19],90
2,FC(F)(F)c1cc(Cl)cc(-c2c(C(F)(F)C(F)(F)F)nn(-c3ncccn3)c2N=Cc2ccc(Cl)cc2)c1 [Example 1-40],100
3,FC(F)C(F)(F)c1nn(-c2ncccn2)c(N=Cc2ccc(Cl)cc2)c1-c1cc(Cl)c2c(c1)OCO2 [Example 1-22],100
4,CC(C)OC=Nc1c(-c2cc(Cl)c3c(c2)OCO3)c(C(F)(F)C(F)F)nn1-c1ncccn1 [Example 1-38],100

# System: green peach affid (Myzus persicae)
# Experiment: Myzus test (MYZUPE spray treatment)
# Assay type: in vivo
# Settings: 100 g/ha, after 6 days
# Method: Solvents: 78 parts by weight of acetone
# • 1.5 parts by weight of dimethyl formamide Emulsifier: 0.5 part by weight of alkylaryl polyglycol ether
# To produce a suitable preparation of active compound, 1 part by weight of active compound is mixed with the stated amounts of solvent and emulsifier, and the concentrate is diluted with emulsifier-containing water to the desired concentration.
# Discs of Chinese cabbage leaves (Brassica pekinensis) infested by all stages of the green peach affid (Myzus persicae) are sprayed with an active compound preparation of the desired concentration.
# After 6 days, the activity in % is determined. 100% means that all affids have been killed; 0% means that none of the affids have been killed.
row,SMILES,activity (affids killed) [%]
1,CCOC=Nc1c(-c2cc(Cl)cc(C(F)(F)F)c2)c(C(F)(F)F)nn1-c1ncccn1 [Example 1-11],90
2,CCOC=Nc1c(-c2cc(Cl)cc(C(F)(F)F)c2)c(C(F)(F)C(F)(F)F)nn1-c1ncccn1 [Example 1-43],100

# System: Boophilus microplus strain Parkhurst (SP-resistant)
# Experiment: Boophilus microplus test (DIP)
# Assay type: in vivo
# Settings: 100 ppm
# Method: Test animals: adult fed females of the Boophilus microplus strain Parkhurst (SP-resistant)
# Solvent: Dimethyl sulphoxide
# 10 mg of active compound are dissolved in 0.5 ml of dimethyl sulphoxide. To produce a suitable formulation, the active compound solution is diluted with water to the particular desired concentration. This active compound preparation is pipetted into tubes. 8-10 ticks are transferred into a further tube provided with holes. The tube is dipped into the active compound preparation, with all ticks being wetted completely. After the liquid has run off, the ticks are transferred to filter discs in plastic dishes and kept in a climatized room. After the desired period of time, the activity is checked for deposition of fertile eggs. Eggs whose fertility is not visible from the outside are kept in glass tubes in a climatized cupboard under the larvae have hatched. An activity of 100% means that no tick has laid fertile eggs.
row,SMILES,activity (no deposition of fertile eggs) [%]
1,COc1nccnc1-n1nc(C(F)(F)F)c(-c2cc(Cl)c3c(c2)OCO3)c1N=COC(C)C [Example 2-19],80
2,FC(F)C(F)(F)c1nn(-c2ncccn2)c(N=Cc2ccc(Cl)cc2)c1-c1cc(Cl)c2c(c1)OCO2 [Example 1-22],100
3,CC(C)OC=Nc1c(-c2cc(Cl)c3c(c2)OCO3)c(C(F)(F)C(F)F)nn1-c1ncccn1 [Example 1-38],100

# System: greenhouse red spider mite (Tetranychus urticae)
# Experiment: Tetranychus test, OP resistant (TETRUR spray treatment)
# Assay type: in vivo
# Settings: 100 g/ha, after 6 days
# Method: Solvents: 78.0 parts by weight of acetone • • 1.5 parts by weight of dimethyl formamide Emulsifier: 0.5 part by weight of alkylaryl polyglycol ether To produce a suitable preparation of active compound, 1 part by weight of active compound is mixed with the stated amounts of solvent and emulsifier, and the concentrate is diluted with emulsifier-containing water to the desired concentration. Discs of bean leaves (Phaseolus vulgaris) which are infested by all stages of the greenhouse red spider mite (Tetranychus urticae) are sprayed with an active compound preparation of the desired concentration. After 6 days, the activity in % is determined. 100% means that all spider mites have been killed; 0% means that none of the spider mites has been killed. The test was carried out and evaluated as described in Example B.7.
row,SMILES,activity (spider mites killed) [%]
1,COc1nccnc1-n1nc(C(F)(F)F)c(-c2cc(Cl)c3c(c2)OCO3)c1N=COC(C)C [Example 2-19],100
2,FC(F)(F)c1cc(Cl)cc(-c2c(C(F)(F)C(F)(F)F)nn(-c3ncccn3)c2N=Cc2ccc(Cl)cc2)c1 [Example 1-40],100
3,FC(F)C(F)(F)c1nn(-c2ncccn2)c(N=Cc2ccc(Cl)cc2)c1-c1cc(Cl)c2c(c1)OCO2 [Example 1-22],90
4,CCOC=Nc1c(-c2cc(Cl)cc(C(F)(F)F)c2)c(C(F)(F)C(F)(F)F)nn1-c1ncccn1 [Example 1-43],100
5,CC(C)OC=Nc1c(-c2cc(Cl)c3c(c2)OCO3)c(C(F)(F)C(F)F)nn1-c1ncccn1 [Example 1-38],100

# System: Lucilia cuprina larvae
# Experiment: Lucilia cuprina test (LUCICU)
# Assay type: in vivo
# Settings: 100 ppm, treated horse meat, after 2 days
# Outline: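 Horse meat treated with compound diluted in water from DMSO concentrate, then populated with larvae. Mortality scored after 2 days as percent kill, 100% meaning all larvae dead.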
row,SMILES,kill [%]
1,CCOC=Nc1c(-c2cc(Cl)cc(C(F)(F)F)c2)c(C(F)(F)F)nn1-c1ncccn1 [Example 1-11],100
2,COc1nccnc1-n1nc(C(F)(F)F)c(-c2cc(Cl)c3c(c2)OCO3)c1N=COC(C)C [Example 2-19],100
3,FC(F)(F)c1cc(Cl)cc(-c2c(C(F)(F)C(F)(F)F)nn(-c3ncccn3)c2N=Cc2ccc(Cl)cc2)c1 [Example 1-40],100
4,FC(F)C(F)(F)c1nn(-c2ncccn2)c(N=Cc2ccc(Cl)cc2)c1-c1cc(Cl)c2c(c1)OCO2 [Example 1-22],100
5,CC(C)OC=Nc1c(-c2cc(Cl)c3c(c2)OCO3)c(C(F)(F)C(F)F)nn1-c1ncccn1 [Example 1-38],100

# System: not listed separately
# Experiment: logP by HPLC on reversed-phase columns (C 18), EU Guideline 79/831 Annex V.A8
# Assay type: physicochemical
# Settings: * LC-MS in the acidic range, pH 2.7, 0.1% aqueous formic acid and acetonitrile
row,SMILES,logP
1,CCOC=Nc1c(-c2cc(Cl)cc(C(F)(F)F)c2)c(C(F)(F)F)nn1-c1ncccn1 [Example 1-11],4.61*

# Same assay, conditions: ** LC-MS in the neutral range, pH 7.8, 0.001 molar aqueous ammonium bicarbonate and acetonitrile
row,SMILES,logP
1,CCOC=Nc1c(-c2cc(Cl)cc(C(F)(F)F)c2)c(C(F)(F)F)nn1-c1ncccn1 [Example 1-11],4.58**;
2,COc1nccnc1-n1nc(C(F)(F)F)c(-c2cc(Cl)c3c(c2)OCO3)c1N=COC(C)C [Example 2-19],4.26**
3,FC(F)(F)c1cc(Cl)cc(-c2c(C(F)(F)C(F)(F)F)nn(-c3ncccn3)c2N=Cc2ccc(Cl)cc2)c1 [Example 1-40],5.93**
4,FC(F)C(F)(F)c1nn(-c2ncccn2)c(N=Cc2ccc(Cl)cc2)c1-c1cc(Cl)c2c(c1)OCO2 [Example 1-22],4.34**
5,CCOC=Nc1c(-c2cc(Cl)cc(C(F)(F)F)c2)c(C(F)(F)C(F)(F)F)nn1-c1ncccn1 [Example 1-43],5.02**
6,CC(C)OC=Nc1c(-c2cc(Cl)c3c(c2)OCO3)c(C(F)(F)C(F)F)nn1-c1ncccn1 [Example 1-38],3.66**

# System: adult Musca domestica
# Experiment: Musca domestica test (MUSCDO)
# Assay type: in vivo
# Settings: 20 ppm, treated sponge
# Method: Solvent: Dimethyl sulphoxide To prepare a suitable preparation of active compound, 10 mg of active component are mixed with 0.5 ml of dimethyl sulphoxide, and the concentrate is diluted with water to the desired concentration. Vessels containing a sponge which had been treated with the active compound preparation of the desired concentration are populated with adult Musca domestica. After the desired period of time, the kill in % is determined. 100% means that all flies have been killed; 0% means that none of the flies have been killed.
row,SMILES,kill [%]
1,COc1nccnc1-n1nc(C(F)(F)F)c(-c2cc(Cl)c3c(c2)OCO3)c1N=COC(C)C [Example 2-19],100
2,CC(C)OC=Nc1c(-c2cc(Cl)c3c(c2)OCO3)c(C(F)(F)C(F)F)nn1-c1ncccn1 [Example 1-38],100

# Same assay, conditions: 100 ppm, treated sponge
row,SMILES,kill [%]
1,CCOC=Nc1c(-c2cc(Cl)cc(C(F)(F)F)c2)c(C(F)(F)F)nn1-c1ncccn1 [Example 1-11],80
2,FC(F)(F)c1cc(Cl)cc(-c2c(C(F)(F)C(F)(F)F)nn(-c3ncccn3)c2N=Cc2ccc(Cl)cc2)c1 [Example 1-40],100

# System: caterpillars of the army worm (Spodoptera frugiperda)
# Experiment: Spodoptera frugiperda test (SPODFR spray treatment)
# Assay type: in vivo
# Settings: 100 g/ha, after 7 days
# Method: Solvents: 78.0 parts by weight of acetone • • 1.5 parts by weight of dimethyl formamide Emulsifier: 0.5 part by weight of alkylaryl polyglycol ether To produce a suitable preparation of active compound, 1 part by weight of active compound is mixed with the stated amounts of solvent and emulsifier, and the concentrate is diluted with emulsifier-containing water to the desired concentration. Discs of maize leaves (Zea mays) are sprayed with an active compound preparation of the desired concentration and, after drying, populated with caterpillars of the army worm (Spodoptera frugiperda). After 7 days, the activity in % is determined. 100% means that all caterpillars have been killed; 0% means that none of the caterpillars have been killed. The test was carried out and evaluated as described in Example B.5.
row,SMILES,activity (caterpillars killed) [%]
1,CCOC=Nc1c(-c2cc(Cl)cc(C(F)(F)F)c2)c(C(F)(F)F)nn1-c1ncccn1 [Example 1-11],100
2,COc1nccnc1-n1nc(C(F)(F)F)c(-c2cc(Cl)c3c(c2)OCO3)c1N=COC(C)C [Example 2-19],100
3,FC(F)(F)c1cc(Cl)cc(-c2c(C(F)(F)C(F)(F)F)nn(-c3ncccn3)c2N=Cc2ccc(Cl)cc2)c1 [Example 1-40],100
4,FC(F)C(F)(F)c1nn(-c2ncccn2)c(N=Cc2ccc(Cl)cc2)c1-c1cc(Cl)c2c(c1)OCO2 [Example 1-22],100
5,CCOC=Nc1c(-c2cc(Cl)cc(C(F)(F)F)c2)c(C(F)(F)C(F)(F)F)nn1-c1ncccn1 [Example 1-43],100
6,CC(C)OC=Nc1c(-c2cc(Cl)c3c(c2)OCO3)c(C(F)(F)C(F)F)nn1-c1ncccn1 [Example 1-38],100

# System: larvae of the mustard beetle (Phaedon cochleariae)
# Experiment: Phaedon test (PHAECO spray treatment)
# Assay type: in vivo
# Settings: 100 g/ha, after 7 days
# Outline: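 Chinese cabbage leaf discs were sprayed with compound formulated in acetone/dimethyl formamide plus alkylaryl polyglycol ether emulsifier, diluted in emulsifier-containing water to the desired concentration. After drying, discs were infested with mustard beetle larvae. Mortality (%) was scored after 7 days, where 100% means all larvae killed.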
row,SMILES,activity (beetle larvae killed) [%]
1,CCOC=Nc1c(-c2cc(Cl)cc(C(F)(F)F)c2)c(C(F)(F)F)nn1-c1ncccn1 [Example 1-11],100
2,COc1nccnc1-n1nc(C(F)(F)F)c(-c2cc(Cl)c3c(c2)OCO3)c1N=COC(C)C [Example 2-19],100
3,FC(F)(F)c1cc(Cl)cc(-c2c(C(F)(F)C(F)(F)F)nn(-c3ncccn3)c2N=Cc2ccc(Cl)cc2)c1 [Example 1-40],100
4,FC(F)C(F)(F)c1nn(-c2ncccn2)c(N=Cc2ccc(Cl)cc2)c1-c1cc(Cl)c2c(c1)OCO2 [Example 1-22],100
5,CCOC=Nc1c(-c2cc(Cl)cc(C(F)(F)F)c2)c(C(F)(F)C(F)(F)F)nn1-c1ncccn1 [Example 1-43],100
6,CC(C)OC=Nc1c(-c2cc(Cl)c3c(c2)OCO3)c(C(F)(F)C(F)F)nn1-c1ncccn1 [Example 1-38],100

# System: Boophilus microplus
# Experiment: Boophilus microplus test (BOOPMI injection)
# Assay type: in vivo
# Settings: 20 μg/animal, injected into the abdomen, after 7 days
# Outline: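 Compound dissolved in DMSO, diluted with water and injected into the tick abdomen; ticks kept in a climatized room. Fertile egg deposition assessed after 7 days; 100% means no tick laid fertile eggs.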
row,SMILES,activity (no deposition of fertile eggs) [%]
1,CCOC=Nc1c(-c2cc(Cl)cc(C(F)(F)F)c2)c(C(F)(F)F)nn1-c1ncccn1 [Example 1-11],100
2,COc1nccnc1-n1nc(C(F)(F)F)c(-c2cc(Cl)c3c(c2)OCO3)c1N=COC(C)C [Example 2-19],100
3,FC(F)(F)c1cc(Cl)cc(-c2c(C(F)(F)C(F)(F)F)nn(-c3ncccn3)c2N=Cc2ccc(Cl)cc2)c1 [Example 1-40],100
4,FC(F)C(F)(F)c1nn(-c2ncccn2)c(N=Cc2ccc(Cl)cc2)c1-c1cc(Cl)c2c(c1)OCO2 [Example 1-22],100
5,CC(C)OC=Nc1c(-c2cc(Cl)c3c(c2)OCO3)c(C(F)(F)C(F)F)nn1-c1ncccn1 [Example 1-38],100
